SMILES strings stand for the structures.

The test deals with T1, Kv3.4 (UniProt Q63734).
T1 construct: IC50; other: Kv3.4, logistic dose response fit; effect on Kv3.4 currents; other: 1 mM, bath applied; slope of dose response curve; other: Kv3.4
T1 sequence (Q63734 1-625): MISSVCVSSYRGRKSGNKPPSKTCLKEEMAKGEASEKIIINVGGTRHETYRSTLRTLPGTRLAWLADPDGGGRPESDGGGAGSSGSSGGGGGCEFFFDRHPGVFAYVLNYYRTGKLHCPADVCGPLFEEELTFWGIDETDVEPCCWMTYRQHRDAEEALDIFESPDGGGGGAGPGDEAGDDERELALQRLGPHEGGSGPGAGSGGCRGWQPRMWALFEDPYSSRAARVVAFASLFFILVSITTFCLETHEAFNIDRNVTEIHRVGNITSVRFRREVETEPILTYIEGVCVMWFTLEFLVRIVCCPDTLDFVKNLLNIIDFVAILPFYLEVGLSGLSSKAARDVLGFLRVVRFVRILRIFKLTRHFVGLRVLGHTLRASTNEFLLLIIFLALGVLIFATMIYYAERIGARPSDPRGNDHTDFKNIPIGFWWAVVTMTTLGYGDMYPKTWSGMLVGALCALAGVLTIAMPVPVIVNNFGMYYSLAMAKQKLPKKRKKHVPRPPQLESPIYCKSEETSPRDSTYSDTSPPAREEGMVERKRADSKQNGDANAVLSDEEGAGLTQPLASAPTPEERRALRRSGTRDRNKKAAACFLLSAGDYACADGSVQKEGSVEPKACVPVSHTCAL
Briefly: TEVC of X. laevis oocytes expressing Kv3.4. Type of test: cell-based. Conditions: for slope of dose response curve: Kv3.4; for IC50: Kv3.4, logistic dose response fit; for effect on Kv3.4 currents: 1 mM, bath applied. The text has this:
Kv2.1 mutants were constructed using the QuickChange Multi Site-Directed Mutagenesis Kit (Stratagene, La Jolla, Calif.). […] For oocyte expression, Kv3.4 was in pBF1, Kv4.2 was in pRAT. cRNA transcripts were produced from SacII-linearized (Kv2.1), Mlullinearized (Kv3.4) and Not1-linearized (Kv4.2) DNA templates using the T3 (Kv2.1), SP6 (Kv3.4) and T7 (Kv4.2) mMessage mMachine kits (Ambion, Austin, Tex.). cRNA was quantified by spectrophotometry and its size integrity verified by gel electophoresis. Defolliculated stage V and VI Xenopus laevis oocytes (purchased from Nasco, Grand Island, N.Y.) were injected with 5 ng of cRNA encoding Kv2.1, Kv3.4 or Kv4.2. Chinese Hamster Ovary (CHO) cells were transfected with 0.25 μg Kv2.1 cDNA, 2 μg blank plasmid and 2 μg Green fluorescent Protein in pBOB using Supetfect transfection reagent (Qiagen) 24 hours before whole-cell voltage clamp studies.
Oocytes were bathed in a small-volume Warner oocyte bath and viewed with a Fisher dissection microscope. Bath solution for whole-cell oocyte recordings was (in mM): 96 NaCl, 4 KCl, 0.7 MgCl2, 1 CaCl2, 10 HEPES (pH 7.4); whole-cell oocyte TEVC pipettes were of 0.2-2 M resistance when filled with 3 M KCl. Experiments were performed 24-48 hours after cRNA injection. For assessment of current-voltage relationships in the absence or presence of dabco derivatives, oocytes were held at −80 mV, stepped for 2 seconds at voltages between −80 mV and +60 mV in 20 mV steps (Kv2.1) or between −80 and +50 mV in 10 mV steps (Kv3.4), then held for 500 ms at −40 mV before returning to the holding potential. For assessment of block during wash-in of dabco derivatives at a single voltage, oocytes were held at −80 mV, and repetitively stepped to 0 mV for 2 s with an interpulse interval of 10 s or 60 s as indicated. A range of concentrations of dabco or dabco derivatives were washed in via the bath solution during repetitive single-voltage pulses (after an initial period of 5 pulses with control solution to ensure current stabilization) until equilibrium block was achieved, to establish dose-responses. […] Washout was performed after the highest concentration of blocker was washed in. In cases where washout was achieved, only those recordings in which current returned to within 10% of original current level were used for construction of dose-response curves. […] As controls for this protection analysis, JC638.2a or MTSET were washed in alone until equilibrium block, then washed out.
Data analysis: Current-voltage relationships were obtained by measuring peak current during depolarizing pulses. Inhibition constants for DABCO blockers were calculated after generating a dose response curve by fitting with a logistic dose-response function y=A2+[A1−A2/1+(x/x0)^p], where A1 is the maximum response plateau, A2 is the minimum response plateau, x is drug concentrator, x0 is the IC50, and p the Hill slope. Data analysis was performed using […] 9 (Axon Instruments, Foster City, Calif.) and tabulated in Excel 5.0. Graphs were generated using Origin 6.1. Data are expressed as mean±SEM, with n specifying the number of independent experiments. Statistical significance was assessed by one-way ANOVA with p<0.05 being indicative of significance.

In the case of `CCCCCCCCCCCCCCCC[N+]12CCN(CC1)CC2` [TA279, 1-aza-4-azonia-4-hexadecylbicyclo[2.2.2]octane], the “slope of dose response curve” value amounted to 2.8±1.1 and half-maximal inhibition (IC50) required 0.6 ± 0.1 µM.
Turning to `c1cc(C[N+]23CCN(CC2)CC3)ccc1C[N+]12CCN(CC1)CC2` [JC638.2α, α,α′-[bis(4-aza-1-azoniabicyclo[2.2.2]octanyl)]p-xylene], the “effect on Kv3.4 currents” value was “significant inhibition”, the “slope of dose response curve” value amounted to 1.3±0.2 and the IC50 stood at 129 ± 20.7 µM.
`C(CC[N+]12CCN(CC1)CC2)C[N+]12CCN(CC1)CC2` [TG26]: the “effect on Kv3.4 currents” value was “less effective than TG27”.
`CCCCCCCCCCCC[N+]12CCN(CC1)CC2` [JE188, 1-aza-4-azonia-4-dodecylbicyclo[2.2.2]octane]: the “slope of dose response curve” value came to 0.7±0.1 and the 50% inhibitory concentration (IC50) stood at 34.2 ± 10 µM.

Source of the values: patent US8143254B2, “Methods for modulating ion channels” (Cornell Research Foundation, Inc., priority 2005, dated 2012).
